We go through 20 compounds from PubChem BioAssay (NCI).

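Dose response: 5 concentrations. Exposure: 48 h. Format: 96-well plates. Endpoint: linear interpolation; highest concentration if not reached. GI50 marks 50% less growth. TGI: concentration producing complete growth inhibition.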

Test systems include SK-OV-3 ovarian; OVCAR-3 ovarian; MOLT-4 leukemia; OVCAR-8 ovarian; SNB-19 CNS; UACC-257 melanoma; SR leukemia; HOP-62 NSCLC; HCT-116 colon; A498 renal.
Common to all, as to experiment: NCI tumour cell line growth inhibition, 48 h

Consider `Nc1ccc2c3c(n(CCCCl)c(=O)c2c1)-c1cc2c(cc1C3=O)OCO2`, for which the GI50 was more than 100 µM in the experiment on SK-OV-3 ovarian; more than 100 µM in the experiment on OVCAR-3 ovarian; 2.14 µM with MOLT-4 leukemia; more than 100 µM in the experiment with OVCAR-8 ovarian; more than 100 µM with SNB-19 CNS; more than 100 µM in the experiment with UACC-257 melanoma. Moreover, the GI50 in the experiment on SR leukemia is 0.0268 µM. For the same compound, the TGI with SK-OV-3 ovarian, with OVCAR-3 ovarian, in the experiment with MOLT-4 leukemia, with OVCAR-8 ovarian, in the experiment with SNB-19 CNS and in the experiment with UACC-257 melanoma was more than 100 µM each time. The compound further yielded a TGI in the experiment on SR leukemia of more than 100 µM.

Regarding `COc1ccc2c(c1)N=C1CSC(c3cccc(Br)c3)N1C2` (configuration not stated), the TGI was 48 µM in the experiment with SK-OV-3 ovarian; 31 µM in the experiment with MOLT-4 leukemia; more than 100 µM with OVCAR-8 ovarian; 56.2 µM in the experiment with HOP-62 NSCLC; 78.8 µM in the experiment on SNB-19 CNS; 24.3 µM in the experiment on UACC-257 melanoma. The figures for the TGI in the experiment on HCT-116 colon and in the experiment with SR leukemia were 28.6 µM and 23.1 µM, respectively.

`Cc1cccc2[s+]snc12`: the TGI with SK-OV-3 ovarian is more than 100 µM; in the experiment on OVCAR-3 ovarian it was more than 89 µM; in the experiment with MOLT-4 leukemia it was more than 65.2 µM; in the experiment on OVCAR-8 ovarian it was more than 63.7 µM; in the experiment with HOP-62 NSCLC, more than 100 µM; in the experiment on SNB-19 CNS, more than 100 µM. Further, the TGI in the experiment with A498 renal was more than 100 µM; in the experiment on UACC-257 melanoma it was more than 100 µM; with HCT-116 colon, more than 100 µM; in the experiment on SR leukemia it was 77.8 µM.

As for `NC(CCP(=O)(O)CCC1C=CC=CC1)C(=O)O` (configuration not stated), the TGI in the experiment with SK-OV-3 ovarian, in the experiment with OVCAR-3 ovarian, in the experiment with MOLT-4 leukemia, in the experiment with OVCAR-8 ovarian, with SNB-19 CNS and in the experiment on UACC-257 melanoma was more than 100 µM each time. For the same compound, the TGI in the experiment with HCT-116 colon and with SR leukemia was more than 100 µM in each case.

On to `CC(C)(C)[Si](C)(C)OCC1CCC(n2cnc3c(N)ncnc32)O1` (configuration not stated), for which the TGI in the experiment with SK-OV-3 ovarian, in the experiment with OVCAR-3 ovarian, with MOLT-4 leukemia, with OVCAR-8 ovarian, in the experiment with HOP-62 NSCLC and in the experiment with SNB-19 CNS was more than 100 µM in each case. Besides, the TGI in the experiment on A498 renal, in the experiment on UACC-257 melanoma and in the experiment with HCT-116 colon was more than 100 µM each time.

For the compound `O=[N+]([O-])c1ccc(Nc2nc3ccccc3s2)cc1`, the TGI in the experiment on OVCAR-3 ovarian is 57.7 µM; in the experiment with MOLT-4 leukemia, 30.3 µM; in the experiment on OVCAR-8 ovarian, more than 100 µM; with HOP-62 NSCLC, more than 100 µM; with SNB-19 CNS, more than 100 µM; with A498 renal, 92 µM. The TGI with UACC-257 melanoma amounted to 75.6 µM; in the experiment with SR leukemia it was 34.5 µM.

In the case of `NNc1nc2ccccc2s1`, the TGI in the experiment on MOLT-4 leukemia, with OVCAR-8 ovarian, with SNB-19 CNS, in the experiment on A498 renal, with UACC-257 melanoma and in the experiment on HCT-116 colon was more than 100 µM each time. The compound also registered a TGI in the experiment with SR leukemia of more than 100 µM.

For the compound `CCOC(=O)/C(C#N)=C1\c2c([nH]c(=S)[nH]c2=O)Oc2ccc3ccccc3c21`, the TGI in the experiment with SK-OV-3 ovarian was more than 100 µM; with OVCAR-3 ovarian, 58.8 µM; in the experiment with MOLT-4 leukemia it was 47.3 µM; in the experiment with OVCAR-8 ovarian, more than 100 µM; with HOP-62 NSCLC, more than 100 µM; in the experiment with SNB-19 CNS, 58.5 µM. Also, the TGI in the experiment on A498 renal, in the experiment with UACC-257 melanoma, in the experiment with HCT-116 colon and in the experiment with SR leukemia was more than 100 µM in each case.

As to `Cc1ccc(Nc2nc(N)nc3c2ncn3C2OC(CO)C(O)C2O)cc1` (configuration not stated), the TGI with SK-OV-3 ovarian, in the experiment with OVCAR-3 ovarian, in the experiment on MOLT-4 leukemia, in the experiment on OVCAR-8 ovarian, in the experiment on HOP-62 NSCLC and in the experiment with SNB-19 CNS was more than 100 µM throughout. In addition, the TGI in the experiment on A498 renal, in the experiment on UACC-257 melanoma and in the experiment with HCT-116 colon was more than 100 µM each time.

With `c1cn2cc(-c3ccc4ncn(C5CCCCC5)c4c3)nc(-c3ccc4c(c3)ncn4C3CCCCC3)c2n1`, the GI50 in the experiment with SK-OV-3 ovarian is 2.27 µM; in the experiment with OVCAR-3 ovarian, 1.83 µM; in the experiment with MOLT-4 leukemia, 1.64 µM; with OVCAR-8 ovarian, 2.55 µM; with HOP-62 NSCLC, 2 µM; in the experiment with SNB-19 CNS it was 2.11 µM. Besides, the values for the GI50 in the experiment on A498 renal, with UACC-257 melanoma and with SR leukemia were 1.77 µM, 2.1 µM and 2.87 µM, respectively. Also, the TGI came out at 4.1 µM in the experiment with SK-OV-3 ovarian; 3.36 µM in the experiment with OVCAR-3 ovarian; 5.22 µM in the experiment with MOLT-4 leukemia; 9.49 µM in the experiment on OVCAR-8 ovarian; 3.72 µM with HOP-62 NSCLC; 4.95 µM with SNB-19 CNS. Further, the TGI with A498 renal was 3.22 µM; in the experiment with UACC-257 melanoma, 3.62 µM; in the experiment on SR leukemia it was more than 100 µM.

For the compound `COC1CC(OC2CCC3(C)C(CCC45CCC(C6=CC(=O)OC6)C(C)(CCC43)C5=O)C2)OC(C)C1O` (configuration not stated), the TGI in the experiment on SK-OV-3 ovarian is more than 100 µM; in the experiment with OVCAR-3 ovarian it was 82 µM; in the experiment on MOLT-4 leukemia, 65.7 µM; with OVCAR-8 ovarian, more than 100 µM; in the experiment on HOP-62 NSCLC, 51.3 µM; in the experiment with SNB-19 CNS it was 63.6 µM. Moreover, the TGI in the experiment with A498 renal was more than 100 µM; in the experiment on UACC-257 melanoma, more than 100 µM; in the experiment on HCT-116 colon, more than 100 µM; in the experiment on SR leukemia, 71.8 µM.

In the case of `CCC(=O)NC(Nc1ccc(O)cc1)(C(F)(F)F)C(F)(F)F`, the TGI with SK-OV-3 ovarian, in the experiment on OVCAR-3 ovarian, in the experiment on MOLT-4 leukemia, with HOP-62 NSCLC, in the experiment with SNB-19 CNS and with A498 renal was more than 100 µM each time. For the same compound, the TGI in the experiment with UACC-257 melanoma, in the experiment with HCT-116 colon and in the experiment on SR leukemia was more than 100 µM throughout.

For the compound `CC12CCC(C(=O)N3CC=CCC3)(OC1=O)C2(C)C` (configuration not stated), the TGI in the experiment on SK-OV-3 ovarian, with OVCAR-3 ovarian, in the experiment with MOLT-4 leukemia, in the experiment with OVCAR-8 ovarian, in the experiment with HOP-62 NSCLC and in the experiment with SNB-19 CNS was more than 100 µM throughout. The TGI with A498 renal, in the experiment with UACC-257 melanoma and with HCT-116 colon was more than 100 µM each time.

For the compound `C/C(=N/O)c1cccc(Nc2nc3ccc(Cl)cc3c3[nH]c4ccccc4c23)c1`, the TGI turned out to be 13.6 µM with SK-OV-3 ovarian; 4.65 µM with OVCAR-3 ovarian; 5.97 µM in the experiment with MOLT-4 leukemia; 7.77 µM with OVCAR-8 ovarian; 6.99 µM with HOP-62 NSCLC; 12 µM in the experiment on SNB-19 CNS. Besides, the TGI is 12.1 µM with UACC-257 melanoma, 2.66 µM in the experiment with HCT-116 colon and more than 100 µM in the experiment with SR leukemia.

Regarding `CC1=CC(=O)C(=O)C2=C1OC1(C2)C(C)CCC2C3(C)CCC(O)C(C)(C)C3CCC21C` (configuration not stated), the TGI with SK-OV-3 ovarian turned out to be 73.8 µM; with OVCAR-3 ovarian, 34.6 µM; with MOLT-4 leukemia it was 78.4 µM; with OVCAR-8 ovarian, 44.7 µM; with HOP-62 NSCLC, 35 µM; with SNB-19 CNS it was 32.2 µM. The figures for the TGI with UACC-257 melanoma, in the experiment with HCT-116 colon and with SR leukemia were 34.3 µM, 30.2 µM and more than 100 µM, respectively.

For the compound `O=C(O)C1Cc2c([nH]c3ccccc23)C=N1` (configuration not stated), the TGI in the experiment on SK-OV-3 ovarian, in the experiment on OVCAR-3 ovarian, in the experiment on MOLT-4 leukemia, with OVCAR-8 ovarian, in the experiment with HOP-62 NSCLC and with SNB-19 CNS was more than 100 µM throughout. The TGI with A498 renal, in the experiment on UACC-257 melanoma and in the experiment on HCT-116 colon was more than 100 µM in each case.

In the case of `N=C(N)c1csc([C@@H]2O[C@H](CO)[C@@H](O)[C@H]2O)n1`, the TGI in the experiment on SK-OV-3 ovarian, with MOLT-4 leukemia, in the experiment on OVCAR-8 ovarian, in the experiment on SNB-19 CNS, in the experiment with UACC-257 melanoma and in the experiment on HCT-116 colon was more than 100 µM in each case. Moreover, in the experiment on SR leukemia, the TGI was more than 100 µM.

Turning to `NC(=O)C(c1ccccc1)N1OC2C(=O)N(c3cccc4ccccc34)C(=O)C2C1c1c2ccccc2c(Cl)c2ccccc12` (configuration not stated), the TGI with SK-OV-3 ovarian is more than 50 µM; in the experiment with OVCAR-3 ovarian it was 17.5 µM; with MOLT-4 leukemia, 9.03 µM; with OVCAR-8 ovarian, 19.4 µM; in the experiment on HOP-62 NSCLC, 27.8 µM; in the experiment on SNB-19 CNS it was 18.9 µM. In addition, the TGI with A498 renal amounted to 37.4 µM; in the experiment with UACC-257 melanoma it was 15.7 µM; in the experiment on HCT-116 colon, 3.05 µM; in the experiment with SR leukemia it was 3.8 µM.

For `C(=NCc1ccccc1)c1ccccc1-c1ccccc1C=NCc1ccccc1`, the TGI with SK-OV-3 ovarian, in the experiment with OVCAR-3 ovarian, in the experiment on MOLT-4 leukemia, in the experiment with OVCAR-8 ovarian, with HOP-62 NSCLC and in the experiment on SNB-19 CNS was more than 10 µM throughout. Moreover, the TGI in the experiment on A498 renal was more than 10 µM; in the experiment with UACC-257 melanoma, 7.53 µM; in the experiment on HCT-116 colon, more than 10 µM; in the experiment on SR leukemia, more than 10 µM.

On to `COc1cc(C2=C(C#N)C(N)OC3=C2COc2ccccc23)cc(OC)c1OC` (configuration not stated), for which the TGI in the experiment with SK-OV-3 ovarian is 39.3 µM; with OVCAR-3 ovarian, 34.3 µM; in the experiment with MOLT-4 leukemia, more than 100 µM; in the experiment with HOP-62 NSCLC, 20.2 µM; with SNB-19 CNS, 30.6 µM; in the experiment with A498 renal, 56.3 µM. For the same compound, the TGI in the experiment on UACC-257 melanoma is more than 100 µM; with HCT-116 colon, 43.5 µM; with SR leukemia, more than 100 µM.
